Our source for the IC50 values is US20240409585A1, “MACROCYCLIC IMMUNOMODULATORS” (priority 2021, published 2024).

The experiment has as its target T1, PE-labeled human PD-L1-Ig binding to Jurkat cell line over-expressing human PD-1 (Jurkat-PD-1) (Homo sapiens, UniProt Q15116).
T1 construct: expressed in transfected cells; host or cells: Jurkat
Put plainly: Jurkat-PD-1 Cell Binding High-Content Screening Assay (CBA): Method 1. Conditions: Jurkat-hPD-1 cells, PE-labeled PD-L1-Ig 20 nM final; read-out: Jurkat HPDL1 PD1 IC50 (uM) (Method 1).

Numbered stars: 1 amine (or outer) side, 2 acyl side, 3 side chain; on linkers, the order of the positions; unused ones are H or OH. Bridge positions count the residues as written; N and C are the ends. Square brackets hold non-standard residues; d marks the D form. Peptide text beside a SMILES is read from it. * marks the point of attachment. ξ: configuration not given here. Phe(4-(3-Py)) = N[C@@H](Cc1ccc(-c2cccnc2)cc1)C(=O)O; Phe(3-CONH2) = NC(=O)c1cccc(C[C@H](N)C(=O)O)c1; Phe(4-COOH) = N[C@@H](Cc1ccc(C(=O)O)cc1)C(=O)O; Bip = N[C@@H](Cc1ccc(-c2ccccc2)cc1)C(=O)O; Phe(3-OMe) = COc1cccc(C[C@H](N)C(=O)O)c1; Phe(3-Me) = Cc1cccc(C[C@H](N)C(=O)O)c1; βAsp = O=C(O)[C@H](CC(=O)[*:2])N[*:1]; Val(3-OH) = CC(C)(O)[C@H](N)C(=O)O; 3Pal = N[C@@H](Cc1cccnc1)C(=O)O; 4Pal = N[C@@H](Cc1ccncc1)C(=O)O; Cha = N[C@@H](CC1CCCCC1)C(=O)O; Ile(3ξ) = CCC(C)[C@H](N)C(=O)O; Thr(3ξ) = CC(O)[C@H](N)C(=O)O; Carboxymethyl = O=C(O)C*; NMeA = CN[C@@H](C)C(=O)O; Pra = C#CC[C@H](N)C(=O)O; Dab = NCC[C@H](N)C(=O)O; Dap = NC[C@H](N)C(=O)O; ξC = NC(CS)C(=O)O; Acm = CC(=O)NC*

T1 sequence (Q15116 25-288): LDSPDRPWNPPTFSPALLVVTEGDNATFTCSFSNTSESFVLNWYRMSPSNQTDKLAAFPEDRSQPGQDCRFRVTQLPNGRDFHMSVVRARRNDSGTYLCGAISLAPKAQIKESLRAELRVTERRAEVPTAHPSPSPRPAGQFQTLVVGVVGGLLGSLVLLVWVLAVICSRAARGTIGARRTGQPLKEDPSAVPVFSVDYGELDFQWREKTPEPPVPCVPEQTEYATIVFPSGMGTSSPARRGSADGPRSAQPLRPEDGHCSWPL
Experimental: Phycoerythrin (PE) was covalently linked to the Ig epitope tag of human PD-L1-Ig and fluorescently-labeled PD-L1-Ig was used for binding studies with a Jurkat cell line over-expressing human PD-1 (Jurkat-PD-1). Briefly, 8×10^3 Jurkat-hPD-1 cells were seeded into 384 well plates in 20 μl of DMEM supplemented with 10% fetal calf serum. 100 nl of compound was added to cells followed by incubation at 37° C. for 2 hours. Then, 5 μl of PE-labeled PD-L1-Ig (20 nM final), diluted in DMEM supplemented with 10% fetal calf serum. […] Data was collected and processed using a Cell Insight NXT High Content Imager and associated software.

With `Cc1cccc(C[C@@H]2NC(=O)[C@H](CC(=O)O)NC(=O)[C@H](Cc3ccc(C(=O)O)cc3)NC(=O)[C@H](Cc3ccc(OCC(=O)O)cc3)NC(=O)CSC[C@@H](C(=O)N[C@@H](CC(=O)O)C(N)=O)NC(=O)[C@H](CO)NC(=O)[C@H](C(C)C)NC(=O)[C@H](CC(C)C)NC(=O)[C@H](CC(N)=O)NC(=O)[C@@H](CC(C)C)NC(=O)[C@H](C)N(C)C(=O)[C@H](C(C)C)NC(=O)[C@H](Cc3ccc(-c4ccccc4)cc3)NC(=O)[C@H](CC(C)C)NC2=O)c1` [Compound 1602] ({CH2CO}-Y(Carboxymethyl)[Phe(4-COOH)]D[Phe(3-Me)]L[Bip]V[NMeA][dL]NLVSCD-NH2; thioether N-14), the half-inhibitory concentration (IC50) (in general, the concentration needed to halve the response being measured) came out at 0.01 µM.

With `CC(C)C[C@@H]1NC(=O)[C@H](Cc2c[nH]c3ccccc23)NC(=O)[C@H](CC(=O)O)NC(=O)[C@H](Cc2ccc(O)cc2)NC(=O)[C@H](Cc2ccccc2)NC(=O)CSC[C@@H](C(=O)N[C@@H](C)C(N)=O)NC(=O)[C@H](CO)NC(=O)[C@H](C(C)C)NC(=O)[C@H](CC(C)C)NC(=O)[C@H](CC(N)=O)NC(=O)[C@@H](CCCCN)NC(=O)[C@H](C)N(C)C(=O)[C@H](C(C)C)NC(=O)[C@H](Cc2ccc(-c3ccccc3)cc2)NC1=O` [Compound 1793] ({CH2CO}-FYDWL[Bip]V[NMeA][dK]NLVSCA-NH2; thioether N-14), the IC50 stood at 0.15 µM. In the case of `C#CC[C@H](NC(=O)C[C@H](NC(=O)[C@@H]1CSCC(=O)N[C@@H](Cc2ccc(OCC(=O)O)cc2)C(=O)N[C@@H](Cc2ccncc2)C(=O)N[C@@H](CC(=O)O)C(=O)N[C@@H](Cc2c[nH]c3ccccc23)C(=O)N[C@@H](CC(C)C)C(=O)N[C@@H](Cc2ccc(-c3ccccc3)cc2)C(=O)N[C@@H](C(C)C)C(=O)N(C)[C@@H](C)C(=O)N[C@H](CC(C)C)C(=O)N[C@@H](CCN)C(=O)N[C@@H](CC2CCCCC2)C(=O)N[C@@H](C(C)C)C(=O)N[C@@H](CO)C(=O)N1)C(=O)O)C(N)=O` [Compound 1645] ({CH2CO}-Y(Carboxymethyl)[4Pal]DWL[Bip]V[NMeA][dL][Dab][Cha]VSC[βAsp][Pra]-NH2; thioether N-14), the IC50 is 0.01 µM.

Consider `CCC(C)[C@@H]1NC(=O)[C@H](Cc2ccc(-c3ccccc3)cc2)NC(=O)[C@H](CC(C)C)NC(=O)[C@H](Cc2c[nH]c3ccccc23)NC(=O)[C@H](CC(=O)O)NC(=O)[C@H](Cc2ccc(C(=O)O)cc2)NC(=O)[C@H](Cc2ccc(OCC(=O)O)cc2)NC(=O)CSC[C@@H](C(=O)N[C@@H](CO)C(N)=O)NC(=O)[C@H]([C@@H](C)O)NC(=O)[C@H](C(C)C)NC(=O)[C@H](CC2CCCCC2)NC(=O)[C@H](CCN)NC(=O)[C@@H](CC(C)C)NC(=O)[C@H](C)N(C)C1=O` (stereo partly drawn) [Compound 1928] ({CH2CO}-Y(Carboxymethyl)[Phe(4-COOH)]DWL[Bip][Ile(3ξ)][NMeA][dL][Dab][Cha]VTCS-NH2; thioether N-14), for which the IC50 turned out to be 0.02 µM.

In the case of `Cc1cccc(C[C@@H]2NC(=O)[C@H](CC(=O)O)NC(=O)[C@H](Cc3ccc(OCC(=O)O)cc3)NC(=O)[C@H](CCN)NC(=O)CSC[C@@H](C(=O)N[C@@H](CO)C(N)=O)NC(=O)[C@H](CO)NC(=O)[C@H](C(C)(C)O)NC(=O)[C@H](CC3CCCCC3)NC(=O)[C@H](CCN)NC(=O)[C@@H](CC(C)C)NC(=O)[C@H](C)N(C)C(=O)[C@H](Cc3ccc(C(=O)O)cc3)NC(=O)[C@H](Cc3ccc(-c4ccccc4)cc3)NC(=O)[C@H](Cc3cccc(C(N)=O)c3)NC2=O)c1` [Compound 2178] ({CH2CO}-[Dab]Y(Carboxymethyl)D[Phe(3-Me)][Phe(3-CONH2)][Bip][Phe(4-COOH)][NMeA][dL][Dab][Cha][Val(3-OH)]SCS-NH2; thioether N-14), the 50% inhibitory concentration (IC50) worked out at 0.04 µM. Take `CC(C)C[C@H]1NC(=O)[C@H](C)N(C)C(=O)[C@H](CCCCN)NC(=O)[C@H](Cc2ccc(-c3ccccc3)cc2)NC(=O)[C@H](C(C)C)NC(=O)[C@H](Cc2c[nH]c3ccccc23)NC(=O)[C@H](CC(=O)O)NC(=O)[C@H](Cc2ccncc2)NC(=O)[C@H](Cc2ccc(OCC(=O)O)cc2)NC(=O)CSC[C@@H](C(N)=O)NC(=O)[C@H](CO)NC(=O)[C@H](C(C)C)NC(=O)[C@H](CC2CCCCC2)NC(=O)[C@H](CC(N)=O)NC1=O` [Compound 2244] ({CH2CO}-Y(Carboxymethyl)[4Pal]DWV[Bip]K[NMeA][dL]N[Cha]VSC-NH2; thioether N-14): the IC50 is 0.04 µM. Turning to `COc1cccc(C[C@@H]2NC(=O)[C@H](Cc3cccnc3)NC(=O)CSCC(C(=O)N[C@@H](CN)C(=O)O)NC(=O)[C@H](CO)NC(=O)[C@H](C(C)C)NC(=O)[C@H](CC(C)C)NC(=O)[C@H](CC(N)=O)NC(=O)[C@@H](CC(C)C)NC(=O)[C@H](C)N(C)C(=O)[C@H](C(C)C)NC(=O)[C@H](Cc3ccc(-c4ccccc4)cc3)NC(=O)[C@H](C(C)C)NC(=O)[C@H](Cc3c[nH]c4ccccc34)NC(=O)[C@H](CC(=O)O)NC2=O)c1` (stereo partly drawn) [Compound 2211] ({CH2CO}-[3Pal][Phe(3-OMe)]DWV[Bip]V[NMeA][dL]NLVS[ξC][Dap]-OH; thioether N-14), the concentration for half-maximal inhibition (IC50) was 0.08 µM. Take `CC(C)C[C@@H]1NC(=O)[C@H](CCN)NC(=O)[C@@H](CC(C)C)NC(=O)[C@H](C)N(C)C(=O)[C@H](CCC(=O)O)NC(=O)[C@H](Cc2ccc(-c3ccccc3)cc2)NC(=O)[C@H](C(C)C)NC(=O)[C@H](Cc2c[nH]c3ccccc23)NC(=O)[C@H](CC(=O)O)NC(=O)[C@H](Cc2ccc(O)cc2)NC(=O)[C@H](Cc2ccccc2)NC(=O)CSC[C@@H](C(=O)N[C@@H](C)C(N)=O)NC(=O)[C@H]([C@@H](C)O)NC(=O)[C@H](C(C)C)NC1=O` [Compound 1134] ({CH2CO}-FYDWV[Bip]E[NMeA][dL][Dab]LVTCA-NH2; thioether N-14): the IC50 stood at 0.11 µM. Consider `CC(C)C[C@@H]1NC(=O)[C@H](Cc2c[nH]c3ccccc23)NC(=O)[C@H](CC(=O)O)NC(=O)[C@H](Cc2ccc(OCC(=O)O)cc2)NC(=O)[C@H](Cc2ccccc2)NC(=O)CSC[C@@H](C(=O)N[C@@H](CC(N)=O)C(N)=O)NC(=O)[C@H](Cc2cnc[nH]2)NC(=O)[C@H](C(C)C)NC(=O)[C@H](CC(C)C)NC(=O)[C@H](CCN)NC(=O)[C@@H](CC(C)C)NC(=O)[C@H](C)N(C)C(=O)[C@H](C(C)C)NC(=O)[C@H](Cc2ccc(-c3ccccc3)cc2)NC1=O` [Compound 2098] ({CH2CO}-FY(Carboxymethyl)DWL[Bip]V[NMeA][dL][Dab]LVHCN-NH2; thioether N-14), for which the IC50 is 0.01 µM. For the compound `Cc1cccc(C[C@@H]2NC(=O)[C@H](CC(N)=O)NC(=O)[C@H](Cc3ccc(OCC(=O)O)cc3)NC(=O)[C@H]([C@@H](C)O)NC(=O)CSC[C@@H](C(=O)N[C@@H](CCN)C(N)=O)NC(=O)[C@H](CCC(=O)O)NC(=O)[C@H](C(C)C)NC(=O)[C@H](CC3CCCCC3)NC(=O)[C@H](CCN)NC(=O)[C@@H](CC(C)C)NC(=O)[C@H](C)N(C)C(=O)[C@H](Cc3ccc(OCC(=O)O)cc3)NC(=O)[C@H](Cc3ccc(-c4ccccc4)cc3)NC(=O)[C@H](Cc3ccc(OCC(=O)O)cc3)NC2=O)c1` [Example 2281] ({CH2CO}-TY(Carboxymethyl)N[Phe(3-Me)]Y(Carboxymethyl)[Bip]Y(Carboxymethyl)[NMeA][dL][Dab][Cha]VEC[Dab]-NH2; thioether N-14), the IC50 was found to be 0.77 µM. In the case of `CC(C)C[C@@H]1NC(=O)[C@H](CCCNC(=N)N)NC(=O)[C@@H](CC(C)C)NC(=O)[C@H](C)N(C)C(=O)[C@H](CCCNC(=N)N)NC(=O)[C@H](Cc2ccc(-c3cccnc3)cc2)NC(=O)[C@H](C(C)C)NC(=O)[C@H](Cc2c[nH]c3ccccc23)NC(=O)[C@H](CC(=O)O)NC(=O)[C@H](Cc2ccc(O)cc2)NC(=O)[C@H](Cc2ccccc2)NC(=O)CSC[C@@H](C(=O)N[C@@H](C)C(N)=O)NC(=O)[C@H]([C@@H](C)O)NC(=O)[C@H](C(C)C)NC1=O` [Compound 1096] ({CH2CO}-FYDWV[Phe(4-(3-Py))]R[NMeA][dL]RLVTCA-NH2; thioether N-14), the IC50 turned out to be 0.29 µM. The figure for `CC(C)C[C@@H]1NC(=O)[C@H](CCCNC(=N)N)NC(=O)[C@@H](CC(C)C)NC(=O)[C@H](C)N(C)C(=O)[C@H](C(C)C)NC(=O)[C@H](Cc2ccc(-c3ccccc3)cc2)NC(=O)[C@H](C(C)C)NC(=O)[C@H](Cc2c[nH]c3ccccc23)NC(=O)[C@H](CC(=O)O)NC(=O)[C@H](Cc2ccc(O)cc2)NC(=O)[C@H](Cc2ccccc2)NC(=O)CSC[C@@H](C(=O)N[C@@H](C)C(N)=O)NC(=O)[C@H](CO)NC(=O)[C@H](C(C)C)NC1=O` [Compound 1770] ({CH2CO}-FYDWV[Bip]V[NMeA][dL]RLVSCA-NH2; thioether N-14) is 0.04 µM.

With `CC(C)C[C@H]1NC(=O)[C@H](C)N(C)C(=O)[C@H](CCC(=O)O)NC(=O)[C@H](Cc2ccc(-c3ccccc3)cc2)NC(=O)[C@H](C(C)C)NC(=O)[C@H](Cc2c[nH]c3ccccc23)NC(=O)[C@H](CC(N)=O)NC(=O)[C@H](Cc2ccc(O)cc2)NC(=O)[C@H](Cc2ccncc2)NC(=O)CSC[C@@H](C(=O)N[C@@H](C)C(N)=O)NC(=O)[C@H](C(C)O)NC(=O)[C@H](C(C)C)NC(=O)[C@H](CC2CCCCC2)NC(=O)[C@H](CCN)NC1=O` (stereo partly drawn) [Compound 2088] ({CH2CO}-[4Pal]YNWV[Bip]E[NMeA][dL][Dab][Cha]V[Thr(3ξ)]CA-NH2; thioether N-14), the half-maximal inhibitory concentration (IC50) was 0.17 µM. For the compound `CC(=O)NCSC[C@@H]1NC(=O)[C@H](CC(C)C)NC(=O)[C@H](CC(N)=O)NC(=O)[C@@H](CC(C)C)NC(=O)[C@H](C)N(C)C(=O)[C@H](C(C)C)NC(=O)[C@H](Cc2ccc(-c3ccccc3)cc2)NC(=O)[C@H](CSCNC(C)=O)NC(=O)[C@H](Cc2cccc(C)c2)NC(=O)[C@H](CC(=O)O)NC(=O)[C@H](Cc2ccncc2)NC(=O)[C@H](Cc2ccc(OCC(=O)O)cc2)NC(=O)CSCC(C(=O)NCC(N)=O)NC(=O)[C@H](CO)NC1=O` (stereo partly drawn) [Compound 1887] ({CH2CO}-Y(Carboxymethyl)[4Pal]D[Phe(3-Me)]C(Acm)[Bip]V[NMeA][dL]NLC(Acm)S[ξC]G-NH2; thioether N-14), the IC50 turned out to be 0.25 µM.
